Data reported in patent US20260109721A1, “IONIZABLE CATIONIC LIPIDS INCORPORATING SILICON: SYNTHESIS AND LNP FORMULATION” (priority 2023, published 2026).
Where two headings read alike, the source gives them in different places.

How the values were obtained:
[1] = system: HeLa cells; assay: Transfection efficiency with Luciferase (SecNLuc) mRNA, Nano-Glo assay (Method A); format: cell-based; details: Luc mRNA, 24 h, luminescence; for Transfection 10 ng mRNA: 10 ng mRNA/well; for Transfection 50 ng mRNA: 50 ng mRNA/well; for Transfection 100 ng mRNA: 100 ng mRNA/well
Method in brief: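 Luminescence from secreted NanoLuc, read with Nano-Glo reagent, gave transfection efficiency 24 h after HeLa cells were dosed. Method A lipid nanoparticles delivered SecNLuc mRNA at 10, 50 or 100 ng per well in triplicate.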

[2] = system: HeLa cells; assay: Cell viability assessment with resazurin assay (Method A); format: cell-based; details: human
Method in brief: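 Viability is given as percent of control metabolic activity: background-corrected resorufin fluorescence (ex 540, em 610 nm), with OptiMEM-only wells set to 100%. Resazurin at 0.025 mg/ml in DMEM/F12 with 10% FCS was applied to LNP-transfected HeLa cells for 50 min at 37 °C.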

[3] = system: HepG2 cell line; assay: In vitro toxicity study on HepG2 cell line (resazurin, viability and IC50); format: cell-based, human; details: for Viability (%) at different lipid concentrations, mean: HepG2 cells, 48 h post-treatment, relative to ethanol vehicle controls; for IC50: Homo sapiens, read-out: IC50 value, μM (on HepG2 cell)
Method in brief: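 Resazurin read-out (ex 530/em 580 nm, 5 h at 37 °C) measured lipid toxicity 48 h after dosing HepG2 cells (1000/well) at 6.25–800 μM. Viability was normalised to ethanol vehicle, and IC50 was derived from concentration-response curves.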

[4] = lipid toxicity, HepG2, 48 h post-treatment, resazurin, 6.25-800 μM

| SMILES | Transfection 10 ng mRNA [1] | Transfection 50 ng mRNA [1] | Transfection 100 ng mRNA [1] | Cell Viability % (Average metabolic rate over all doses, Resazurin) [2] [%] | Viability (%) at different lipid concentrations, mean ([3]; 6.25 μM lipid, resazurin) [%] | Viability (%) at different lipid concentrations, mean ([3]; 12.5 μM lipid, resazurin) [%] | Viability (%) at different lipid concentrations, mean ([3]; 25 μM lipid, resazurin) [%] | Viability (%) at different lipid concentrations, mean ([3]; 50 μM lipid, resazurin) [%] | Viability (%) at different lipid concentrations, mean ([3]; 100 μM lipid, resazurin) [%] | Viability (%) at different lipid concentrations, mean ([3]; 200 μM lipid, resazurin) [%] | Viability (%) at different lipid concentrations, mean ([3]; 400 μM lipid, resazurin) [%] | Viability (%) at different lipid concentrations, mean ([3]; 800 μM lipid, resazurin) [%] | IC50 [3, 4] [µM] | IC50 ([3]; HepG2, 48 h) [µM] |
| --- | --- | --- | --- | --- | --- | --- | --- | --- | --- | --- | --- | --- | --- | --- |
| CCCCCCCC/C=C\CCCCCCCCOC(CCCCCCC/C=C\CCCCCCCC)O[Si](C)(C)OCCCCCCN(C)[C@H](CO)Cc1ccccc1 (stereo partly drawn) [Example 78, (2S,Z)-2-benzyl-13-((Z)-heptadec-8-en-1-yl)-3,11,11-trimethyl-10,12,14-trioxa-3-aza-11-siladotriacont-23-en-1-ol] | 2.45E+03 | 1.55E+04 | 3.54E+04 | 121 | 92.0 | 101.6 | 101.5 | 102.9 | 101.9 | 100.8 | 56.4 | 1.6 | 414 |  |
| CCCCC/C=C\C/C=C\CCCCCCCCOC(CCCCCCC/C=C\C/C=C\CCCCC)O[Si](C)(C)OCCCCCCN(C)C (stereo not drawn) [Example 79, (20Z,23Z)-10-((8Z,11Z)-heptadeca-8,11-dien-1-yl)-N,N,8,8-tetramethyl-7,9,11-trioxa-8-silanonacosa-20,23-dien-1-amine] | 2.45E+03 | 8.30E+04 | 2.01E+05 | 91 | 100.82 | 98.88 | 99.57 | 101.89 | 99.49 | 76.57 | 52.32 | 34.54 |  | 473 |
| CCCCC/C=C\C/C=C\CCCCCCCCO[Si](C)(C)OC(CCCCCCC/C=C\C/C=C\CCCCC)OCCCN(C)C (stereo not drawn) [Example 80, (17Z,20Z)-5-((8Z,11Z)-heptadeca-8,11-dien-1-yl)-N,N,7,7-tetramethyl-4,6,8-trioxa-7-silahexacosa-17,20-dien-1-amine] | 1.90E+01 | 1.25E+02 | 5.41E+02 | 99 | 98.8 | 98.68 | 98.64 | 99.05 | 96.68 | 69.13 | 0.79 | 0.71 |  | 223 |
| CCCCCCCC/C=C\CCCCCCCCOC(=O)C(C)(C)CC(OCCCCCCCC/C=C\CCCCCCCC)O[Si](C)(C)OCCCCCCN(CCO)CCO (stereo not drawn) [Example 84, (Z)-octadec-9-en-1-yl 1-hydroxy-3-(2-hydroxyethyl)-11,11,15,15-tetramethyl-13-(((Z)-octadec-9-en-1-yl)oxy)-10,12-dioxa-3-aza-11-silahexadecan-16-oate] | 3.08E+03 | 5.69E+04 | 2.00E+05 | 114 | 87.8 | 99.3 | 101.8 | 104.5 | 103.5 | 90.4 | 82.2 | 88.5 | > 800 |  |
| CCCCCCCC/C=C\CCCCCCCCOC(=O)C(C)(C)CC(OCCCCCCCC/C=C\CCCCCCCC)O[Si](C)(C)OCCCCCCN1CCOCC1 (stereo not drawn) [Example 85, (Z)-octadec-9-en-1-yl 4-((dimethyl((6-morpholinohexyl)oxy)silyl)oxy)-2,2-dimethyl-4-(((Z)-octadec-9-en-1-yl)oxy)butanoate] | 4.67E+00 | 3.23E+01 | 8.37E+01 | 110 | 97.0 | 101.0 | 101.4 | 102.1 | 101.5 | 101.9 | 103.2 | 80.1 | > 800 |  |
| CCCCCCCC/C=C\CCCCCCCCOC(=O)C(C)(C)CC(OCCCCCCCC/C=C\CCCCCCCC)O[Si](C)(C)OCCCCCCN(CCCCO)CCCCO (stereo not drawn) [Example 86, (Z)-octadec-9-en-1-yl 18-hydroxy-14-(4-hydroxybutyl)-2,2,6,6-tetramethyl-4-(((Z)-octadec-9-en-1-yl)oxy)-5,7-dioxa-14-aza-6-silaoctadecanoate] | 3.47E+04 | 4.82E+05 | 1.37E+06 | 96 | 95.4 | 107.0 | 108.7 | 105.4 | 95.4 | 77.2 | 57.1 | 42.8 | 564 |  |
| CCCCCCCC/C=C\CCCCCCCCOC(=O)C(C)(C)CC(OCCCCCCCC/C=C\CCCCCCCC)O[Si](C)(C)OCCCCCCN1CCCCC1 (stereo not drawn) [Example 87, (Z)-octadec-9-en-1-yl 4-((dimethyl((6-(piperidin-1-yl)hexyl)oxy)silyl)oxy)-2,2-dimethyl-4-(((Z)-octadec-9-en-1-yl)oxy)butanoate] | 5.68E+03 | 5.01E+04 | 9.96E+04 | 84 | 101.2 | 97.0 | 97.0 | 97.8 | 97.6 | 102.1 | 73.7 | 35.2 |  | 625 |
| CCCCCCCC/C=C\CCCCCCCCOC(=O)C(C)(C)CC(OCCCCCCCC/C=C\CCCCCCCC)O[Si](C)(C)OCCCCCCN(CCCO)CCCO (stereo not drawn) [Example 88, (Z)-octadec-9-en-1-yl 1-hydroxy-4-(3-hydroxypropyl)-12,12,16,16-tetramethyl-14-(((Z)-octadec-9-en-1-yl)oxy)-11,13-dioxa-4-aza-12-silaheptadecan-17-oate] | 6.30E+03 | 9.95E+04 | 5.10E+05 | 91 | 109.1 | 112.0 | 109.5 | 99.6 | 77.4 | 57.3 | 36.6 | 21.0 | 272 |  |
| CCCCCCCC/C=C\CCCCCCCCOC(=O)C(C)(C)CC(OCCCCCCCC/C=C\CCCCCCCC)O[Si](C)(C)OCCCCCCN1CCCCC1CO (stereo not drawn) [Example 89, (Z)-octadec-9-en-1-yl 4-((((6-(2-(hydroxymethyl)piperidin-1-yl)hexyl)oxy)dimethylsilyl)oxy)-2,2-dimethyl-4-(((Z)-octadec-9-en-1-yl)oxy)butanoate] | 1.10E+06 | 7.47E+06 | 1.54E+07 | 96 | 101.4 | 97.9 | 97.9 | 102.8 | 108.3 | 106.6 | 99.5 | 91.6 | > 800 |  |
